These results are taken from US20080045514A1 (Cytovia, Inc., priority 2006, published 2008).

What all share (format): cell-based
The subject of experiment [1] is human hepatocellular carcinoma cell line SNU398. Nature of the experiment: Inhibition of cell proliferation (GI50), SNU398. Conditions: Homo sapiens; SNU 398 cells, 48 h, CellTiter-Glo. The method in brief: (§1)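 Viability measured as CellTiter-Glo luminescence after 48 h compound treatment (1 nM–10 μM final) at 37 °C, 5% CO2, seeding 4.4×10^4 cells/mL. GI50 taken at 50% of growth above a 0.5 h starting-cell baseline, relative to untreated maximal proliferation.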

The test system of experiment [2] is human leukemia cell line K562. Nature of the experiment: Inhibition of cell proliferation (GI50), K562. Conditions: Homo sapiens; K562 cells, 48 h, CellTiter-Glo. The method in brief: as §1
The subject of experiment [3] is human cancer cell line H1299. Nature of the experiment: Caspase cascade activation (EC50), H1299. Conditions: NCI-H1299, H1299 cells, read-out: caspase potency (EC50) H1299. The method in brief:
(§2)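 Fluorogenic DEVD-R110 cleavage at 485/530 nm gives the read-out, taken 3 h after substrate addition and corrected by the control's T=0 background. Compound-treated over control net RFU ratio was fitted sigmoidally for EC50. Cells had been treated 48 h at 0.016 to 10 μM final.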

Experiment [4] has as its system human breast cancer cell line T-47D. Nature of the experiment: Caspase cascade activation (EC50), T-47D. Conditions: Homo sapiens; T47D cells; caspase cascade activation; read-out: caspase potency (EC50) T47D. The method in brief:
as §2

Experiment [5] concerns human lung cancer cell line H1299. Nature of the experiment: Inhibition of cell proliferation (GI50), H1299. The following applies: NCI-H1299, H1299 cells, 48 h, CellTiter-Glo. How it is done: Human breast cancer cell lines T-47D, human hepatocellular carcinoma cell line SNU398, human colon carcinoma cell line HCT116, human lung cancer cell line H1299, human leukemia cell line K562, human lymphoma cell line Raji, human B cell lymphoblastoid cell line Ramos, and human Burkitt's lymphoma cell line Namalwa were grown and harvested as in Example 100. An aliquot of […] of cells (4.4×10^4 cells/mL) was added to a well of a 96-well microtiter plate containing 5 μL of a 10% DMSO in RPMI-1640 media solution containing 10 nM to 100 μM of 3-(2-chlorophenyl)-6-(3,4-methylenedioxyphenyl)-7H-[1,2,4]triazolo[3,4-b][1,3,4]thiadiazine (1 nM to 10 μM final). An aliquot of 45 μL of cells was added to a well of a 96-well microtiter plate containing 5 μL of a 10% DMSO in RPMI-1640 media solution without compound as the control sample for maximal cell proliferation (LMax). The samples were mixed by agitation and then incubated at 37° C. for 48 h in a 5% CO2-95% humidity incubator. After incubation, the samples were removed from the incubator and 25 μL of CellTiter-Glo™ reagent (Promega) was added. The samples were mixed by agitation and incubated at room temperature for 10-15 min. Plates were then read using a luminescent plate reader (Model SPECTRAfluor Plus, Tecan) to give Ltest values.
The samples were mixed by agitation and then incubated at 37° C. for 0.5 h in a 5% CO2-95% humidity incubator. After incubation, the samples were removed from the incubator and 25 μL of CellTiter-Glo™ reagent (Promega) was added. The samples were mixed by agitation and incubated at […] 10-15 min at room temperature in a 5% CO2-95% humidity incubator. Fluorescence was read as above, (LStart) defining luminescence for initial cell number used as baseline in GI50 determinations.
Calculation: GI50 (dose for 50% inhibition of cell proliferation) is the concentration where [(Ltest−LStart)/(LMax−LStart)]=0.5.

Experiment [6] concerns human Burkitt's lymphoma cell line Namalwa. Nature of the experiment: Caspase cascade activation (EC50), Namalwa. Conditions: Homo sapiens, Burkitts lymphoma cell; Namalwa cells; caspase cascade activation; read-out: caspase potency (EC50) Namalwa. The method in brief:
as §2

In experiment [7] the test system is human hepatocellular carcinoma cell line SNU398. Nature of the experiment: Caspase cascade activation (EC50), SNU398. The following applies: Homo sapiens, SNU-398; SNU398 cells; caspase cascade activation; read-out: caspase potency (EC50) SNU398. The method in brief: as §2
The test system of experiment [8] is human B cell lymphoblastoid cell line Ramos. Nature of the experiment: Inhibition of cell proliferation (GI50), Ramos. Conditions: Homo sapiens; Ramos cells, 48 h, CellTiter-Glo. The method in brief: as §1
The test system of experiment [9] is human colon carcinoma cell line HCT116. Nature of the experiment: Caspase cascade activation (EC50), HCT116. Conditions: Homo sapiens, HCT-116; HCT116 cells; caspase cascade activation; read-out: caspase potency (EC50) HCT116. The method in brief:
as §2

For experiment [10], the system named is human lymphoma cell line Raji. Nature of the experiment: Inhibition of cell proliferation (GI50), Raji. Conditions: Homo sapiens; Raji cells, 48 h, CellTiter-Glo. The method in brief: as §1
For experiment [11], the system named is human colon carcinoma cell line HCT116. Nature of the experiment: Inhibition of cell proliferation (GI50), HCT116. The following applies: Homo sapiens; HCT 116 cells, 48 h, CellTiter-Glo. The method in brief:
as §1

The test system of experiment [12] is human B cell lymphoblastoid cell line Ramos. Nature of the experiment: Caspase cascade activation (EC50), Ramos. Conditions: Homo sapiens, RAMOS cells, read-out: caspase potency (EC50) RAMOS. The method in brief: as §2
Experiment [13] has as its system human lymphoma cell line Raji. Nature of the experiment: Caspase cascade activation (EC50), Raji. The following applies: Homo sapiens, RAJI cells, read-out: caspase potency (EC50) RAJI. The method in brief:
as §2

For experiment [14], the system named is human breast cancer cell line T-47D. Nature of the experiment: Inhibition of cell proliferation (GI50), T47D. Conditions: Homo sapiens; T47D cells, 48 h, CellTiter-Glo. The method in brief:
as §1

In experiment [15] the test system is human Burkitt's lymphoma cell line Namalwa. Nature of the experiment: Inhibition of cell proliferation (GI50), Namalwa. The following applies: Homo sapiens, Burkitts lymphoma cell; Namalwa cells, 48 h, CellTiter-Glo. The method in brief:
as §1

Take `COc1ccc(C2=Nn3c(nnc3-c3cc(OC)c(OC)c(OC)c3)SC2)cc1OC` [Example L1, 3-(3,4,5-Trimethoxyphenyl)-6-(3,4-dimethoxyphenyl)-7H-[1,2,4]triazolo[3,4-b][1,3,4]thiadiazine]: the GI50 was determined as 147 nM in experiment [1]; 163 nM in [2]; 339 nM in experiment [5]; 76 nM in experiment [8]; 150 nM in experiment [10]; 200 nM in experiment [11]. Moreover, the concentration for 50% growth inhibition (GI50) was 200 nM in experiment [14] and 243 nM in experiment [15]. Moreover, the EC50 turned out to be 573 nM in experiment [3]; 499 nM in experiment [4]; 122 nM in experiment [6]; 132 nM in experiment [7]; 178 nM in experiment [9]; 130 nM in experiment [12]. Further, in experiment [13], the EC50 was determined as 180 nM.
For `COc1ccc(C2=Nn3c(nnc3-c3ccc(Cl)cc3)SC2)cc1` [D, 3-(4-Chlorophenyl)-6-(4-methoxyphenyl)-7H-[1,2,4]triazolo[3,4-b][1,3,4]thiadiazine], the GI50 in [2] came to 31 nM; in experiment [5] it was 42 nM; in [8], 21 nM; in experiment [10] it was 1500 nM; in experiment [11] it was 2120 nM; in experiment [14], 144 nM. In [15], this compound showed a GI50 of 1500 nM. The concentration for a half-maximal effect (EC50) in experiment [3] was 142 nM; in [4] it was 315 nM; in experiment [6] it was 58 nM; in experiment [7] it was 82 nM; in [9], 130 nM; in [12], 63 nM. Also, the EC50 in experiment [13] turned out to be 84 nM.
Turning to `Cc1ccccc1-c1nnc2n1N=C(c1ccc3c(c1)OCO3)CS2` [Example M, 3-(2-Methylphenyl)-6-(3,4-methylenedioxyphenyl)-7H-[1,2,4]triazolo[3,4-b][1,3,4]thiadiazine], the GI50 in [2] came to 239 nM; in experiment [5] it was 214 nM; in experiment [8], 164 nM; in experiment [10] it was 2220 nM; in [11], 825 nM; in [14] it was 124 nM. Besides, the GI50 in experiment [15] is 122 nM. The 50% effective concentration (EC50) amounted to 420 nM in experiment [3]; 282 nM in experiment [4]; 144 nM in experiment [6]; 254 nM in experiment [7]; 317 nM in experiment [9]; 452 nM in experiment [12]. Moreover, the EC50 in [13] came out at 399 nM.
Regarding `Clc1ccccc1-c1nnc2n1N=C(c1ccc3c(c1)OCO3)CS2` [Example P, 3-(2-chlorophenyl)-6-(3,4-methylenedioxyphenyl)-7H-[1,2,4]triazolo[3,4-b][1,3,4]thiadiazine], the GI50 was found to be 214 nM in [2]; 202 nM in experiment [5]; 118 nM in experiment [8]; 426 nM in experiment [10]; 884 nM in experiment [11]; 175 nM in [14]. The same compound registered a GI50 in [15] of 472 nM. The EC50 in [3] was 370 nM; in experiment [4], 235 nM; in experiment [6], 123 nM; in experiment [7], 189 nM; in experiment [9] it was 231 nM; in [12], 289 nM. In addition, the EC50 in experiment [13] was 339 nM.
Regarding `COc1ccc(C2=Nn3c(nnc3-c3ccc(Cl)cc3Cl)SC2)cc1OC` [Example G1, 3-(2,4-Dichlorophenyl)-6-(3,4-dimethoxyphenyl)-7H-[1,2,4]triazolo[3,4-b][1,3,4]thiadiazine], the GI50 in experiment [1] is 60 nM; in experiment [2] it was 32 nM; in [5] it was 48 nM; in experiment [8], 45 nM; in experiment [10], 90 nM; in [11] it was 81 nM. Besides, the GI50 came to 130 nM in experiment [14] and 13 nM in [15]. The EC50 in experiment [3] is 277 nM; in [4] it was 505 nM; in experiment [6] it was 78 nM; in [7] it was 75 nM; in experiment [9], 231 nM; in [12], 107 nM. For the same compound, the EC50 in experiment [13] was found to be 101 nM.
In the case of `CCOc1ccc(C2=Nn3c(nnc3-c3ccc(Cl)cc3)SC2)cc1` [F, 3-(4-Chlorophenyl)-6-(4-ethoxyphenyl)-7H-[1,2,4]triazolo[3,4-b][1,3,4]thiadiazine], the GI50 amounted to 47 nM in [2]; 58 nM in [5]; 15 nM in experiment [8]; 136 nM in experiment [10]; 419 nM in experiment [11]; 151 nM in experiment [14]. Also, the GI50 in experiment [15] stood at 120 nM. Further, the EC50 in [3] was found to be 275 nM; in [4] it was 561 nM; in [6], 69 nM; in experiment [7] it was 89 nM; in experiment [9] it was 141 nM; in experiment [12], 106 nM. Moreover, the EC50 in [13] was determined as 155 nM.
Take `COc1ccc(C2=Nn3c(nnc3-c3ccccc3OC)SC2)cc1OC` [Example K1, 3-(2-Methoxyphenyl)-6-(3,4-dimethoxyphenyl)-7H-[1,2,4]triazolo[3,4-b][1,3,4]thiadiazine]: the GI50 in experiment [2] was found to be 99 nM; in experiment [5] it was 191 nM; in experiment [8], 41 nM; in experiment [10], 39 nM; in experiment [11], 253 nM; in experiment [14], 461 nM. Also, in experiment [15], it took 38 nM to inhibit growth by half (GI50). The EC50 is 374 nM in experiment [3]; 506 nM in experiment [4]; 106 nM in experiment [6]; 70 nM in experiment [7]; 134 nM in [9]; 88 nM in [12]. The EC50 in experiment [13] was 137 nM.
Consider `CCOc1cccc(-c2nnc3n2N=C(c2ccc(O)c(O)c2)CS3)c1` [Example C1, 3-(3-Ethoxyphenyl)-6-(3,4-dihydroxyphenyl)-7H-[1,2,4]triazolo[3,4-b][1,3,4]thiadiazine], for which the GI50 in experiment [2] worked out at 453 nM; in experiment [5] it was 1010 nM; in experiment [8], 1390 nM; in [10], 2890 nM; in experiment [11], 2340 nM; in [14] it was 1370 nM. This compound registered a GI50 in [15] of 2870 nM. Moreover, the EC50 in experiment [3] is 1310 nM; in experiment [4] it was 1320 nM; in [7], 1220 nM; in experiment [9] it was greater than 10000 nM; in experiment [12] it was 925 nM; in [13] it was 706 nM.
